Laboratory results reported in patent US9290436B2, “Compositions containing carboxylic acid-substituted derivatives” (Elizabeth Arden, Inc., priority 2008, dated 2016).

Experiments:
[1] = Six-week double-blind clinical evaluation for the treatment of red and brown pigmented skin; assay type: in vivo, human; conditions: 0.5% in vehicle, twice a day to facial area for 6 weeks; expert grading of Canfield VISIA-CR RBX images; women ages 40-70
Procedure: A six-week double-blind clinical evaluation was performed, comparing a control vehicle to idebenone dipalmitoyl glycerate for the treatment of red and brown pigmented skin. Approximately 36 women, ages 40-70 with moderate hyperpigmentation and reddening of the skin were selected to participate in the study. Subjects were randomly assigned to one of three groups. Group I received a product with no idebenone active ingredient (vehicle), Group II received the same vehicle with 0.5% Idebenone (Hydroxydecyl Ubiquinone) added, and Group III received the same vehicle with 0.5% of Idebenone Dipalmitoyl Glycerate added. Subjects were instructed to apply the product twice a day (morning and evening) to the facial area for 6 weeks. Canfield VISIA-CR RBX images were made at baseline and after 6 weeks use and analyzed. Digital and UV photographs were also taken, standardizing distance and positioning of the subjects, pre and post product application.

[2] = Maximization Test (repeat insult patch test) for contact-sensitizing potential; assay type: in vivo, human; conditions: Vehicle+1% test substance, occlusive patch, 5 induction exposures with SLS pre-treatment, single challenge; graded 48 or 72 hours after application of challenge patches; healthy adult volunteers
Procedure: A study was performed to evaluate the contact-sensitizing potential of a topical Facial Cream containing idebenone dipalmitoyl glycerate (Vehicle+1% idebenone dipalmitoyl glycerate) using the Maximization Test. The test was a repeat insult patch test wherein the test material was applied under an occlusive dressing to the upper outer arm, volar forearm or back repeatedly to the same site for five 48-hour induction periods, followed 10-14 days later by a single challenge to a naive skin site. The test sample was coded Cream A and tested as supplied viz. neat. All test materials were stored under ambient conditions in an inaccessible location under the supervision of the investigator.
The test subjects were all healthy, adult volunteers over the age of 18 years. […]

Compound	subjects responded with a decrease in brown pigmentation [1] [%]	subjects responded with less redness [1] [%]	subjects with contact allergy / positive reaction (recordable level of skin sensitization) after challenge [2]
3-oxo-3-(9-(2,4,5-trimethyl-3,6-dioxocyclohexa-1,4-dienyl)monyloxy)propane-1,2-diyl dipalmitate [idebenone dipalmitoyl glycerate]	75	58	
COC1=C(OC)C(=O)C(CCCCCCCCCCOP(=O)(O)O)=C(C)C1=O [idebenone phosphate ester]			Four subjects exhibited positive reactions
COC1=C(OC)C(=O)C(CCCCCCCCCCO)=C(C)C1=O [idebenone, 6-(10-hydroxydecyl)-2,3-dimethoxy-5-methyl-1,4-benzoquinone]	67	58	
